# According to US10138207B2, “Benzomorphan analogs and the use thereof” (priority 2012, dated 2018):
# Read-outs that look alike come from different tables or passages of the source.
# Columns and labels:
# [1] = target: T1, μ-opioid receptor (Homo sapiens, UniProt P35372); test: μ-opioid receptor [35S]GTPγS functional assay, U-2 OS cells; format: biochemical; parameters: expressed in transfected cells; host or cells: U-2 OS; conditions: for Emax: relative to DAMGO
# [2] = target: κ opioid receptor (Homo sapiens, UniProt P41145); test: κ-opioid receptor [35S]GTPγS functional assay, U-2 OS cells; format: biochemical; parameters: expressed in transfected cells; host or cells: U-2 OS (in-house membranes); conditions: for Emax: read-out: GTPγS κ Emax
# Experimental: Membranes from recombinant HEK-293 cells, CHO or U-2 OS cells expressing the recombinant human κ opioid receptor (κ) were prepared by lysing cells in ice cold hypotonic buffer (2.5 mM MgCl2, 50 mM HEPES, pH 7.4) (10 mL/10 cm dish) followed by homogenization with a tissue grinder/Teflon pestle. […] Membranes were collected by centrifugation at 30,000×g for 15 min at 4° C. and pellets were resuspended in hypotonic buffer to a final concentration of 1-3 mg/mL. Protein concentrations were determined using the BioRad protein assay reagent with bovine serum albumen as standard. Aliquots of κ receptor membranes were stored at −80° C.
# Plates were incubated for 30 min at a temperature of about 25° C. with shaking.
# [3] = target: T1, μ-opioid receptor; test: μ-opioid receptor [35S]GTPγS functional assay, HEK-293 or CHO cells
# [4] = U-2 OS cells, read-out: GTPγS μ EC50
# [5] = U-2 OS cells, read-out: GTPγS μ Emax
# [6] = U-2 OS cells, read-out: GTPγS κ EC50
# [7] = U-2 OS cells, relative to U69,593
# Sequence of κ opioid receptor (P41145 whole entry): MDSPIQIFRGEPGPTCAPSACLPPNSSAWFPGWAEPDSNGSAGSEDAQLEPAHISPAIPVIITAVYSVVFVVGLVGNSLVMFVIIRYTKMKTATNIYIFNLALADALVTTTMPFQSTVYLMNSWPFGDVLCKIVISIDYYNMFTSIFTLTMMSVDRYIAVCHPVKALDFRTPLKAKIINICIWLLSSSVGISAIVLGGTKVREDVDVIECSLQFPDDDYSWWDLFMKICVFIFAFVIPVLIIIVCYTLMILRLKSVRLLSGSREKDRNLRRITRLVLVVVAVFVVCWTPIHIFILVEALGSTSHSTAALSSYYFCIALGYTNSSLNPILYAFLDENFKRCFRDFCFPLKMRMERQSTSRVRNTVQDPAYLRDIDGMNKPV
# T1 sequence (P35372 whole entry, species assumed): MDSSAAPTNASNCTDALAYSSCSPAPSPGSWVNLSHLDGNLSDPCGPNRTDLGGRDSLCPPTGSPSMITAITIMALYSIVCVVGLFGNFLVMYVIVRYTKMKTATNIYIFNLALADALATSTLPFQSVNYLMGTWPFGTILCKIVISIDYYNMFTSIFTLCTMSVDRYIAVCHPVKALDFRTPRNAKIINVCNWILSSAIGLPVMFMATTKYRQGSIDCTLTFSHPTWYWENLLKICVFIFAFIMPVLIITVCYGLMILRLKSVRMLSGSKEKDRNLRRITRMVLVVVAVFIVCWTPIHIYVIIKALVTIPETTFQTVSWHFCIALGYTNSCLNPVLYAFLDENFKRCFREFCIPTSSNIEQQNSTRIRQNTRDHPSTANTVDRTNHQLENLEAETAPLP
smiles,measurement,setting,value
"CN1CC[C@@]2(C)c3cc(O)ccc3C[C@@H]1[C@H]2N(C)CCc1ccc(S(N)(=O)=O)cc1 [Compound 109, 4-(2-(((2R,6S,11S)-8-hydroxy-3,6-dimethyl-1,2,3,4,5,6-hexahydro-2,6-methanobenzo[d]azocin-11-yl)(methyl)amino)ethyl)benzenesulfonamide]",EC50,[1]; [4],29 ± 1.36 nM
same,Emax,[1]; [5],100 ± 3.18%
same,EC50,[2]; [6],0.192 ± 0.0416 µM
same,Emax,[2]; [7],36.7 ± 0.67%
"CN1CC[C@@]2(C)c3cc(O)ccc3C[C@@H]1[C@H]2NCCNC(=O)OC(C)(C)C [Compound 112, tert-butyl (2-(((2R,6S,11S)-8-hydroxy-3,6-dimethyl-1,2,3,4,5,6-hexahydro-2,6-methanobenzo[d]azocin-11-yl)amino)ethyl)carbamate]",EC50,[1]; [4],7.56 ± 0.45 nM
same,Emax,[1]; [5],83.7 ± 1.45%
same,EC50,[2]; [6],0.0234 ± 0.00781 µM
same,Emax,[2]; [7],26.3 ± 0.88%
"CN1CC[C@@]2(C)c3cc(O)ccc3C[C@@H]1[C@@H]2N(C)C(=O)Nc1nc2cc(F)ccc2s1 [Compound 140, 3-(5-fluorobenzo[d]thiazol-2-yl)-1-((2R,6S,11R)-8-hydroxy-3,6-dimethyl-1,2,3,4,5,6-hexahydro-2,6-methanobenzo[d]azocin-11-yl)-1-methylurea]",EC50,[1]; [4],0.1 ± 0.01 nM
same,Emax,[1]; [5],82 ± 0.91%
same,EC50,[2]; [6],0.00468 ± 0.0004 µM
same,Emax,[2]; [7],107 ± 4.4%
"CN(C(=O)c1ccsc1)[C@@H]1[C@H]2Cc3ccc(O)cc3[C@]1(C)CCN2CC1CC1 [Compound 114, N-((2R,6S,11S)-3-(cyclopropylmethyl)-8-hydroxy-6-methyl-1,2,3,4,5,6-hexahydro-2,6-methanobenzo[d]azocin-11-yl)-N-methylthiophene-3-carboxamide]",EC50,[1]; [4],152 ± 16.8 nM
same,Emax,[1]; [5],20.7 ± 0.67%
same,EC50,[2]; [6],0.0189 ± 0.00201 µM
same,Emax,[2]; [7],107 ± 4.36%
"CN(C(=O)c1ccccc1)[C@@H]1[C@H]2Cc3ccc(O)cc3[C@]1(C)CCN2CC1CC1 [Compound 115, N-((2R,6S,11S)-3-(cyclopropylmethyl)-8-hydroxy-6-methyl-1,2,3,4,5,6-hexahydro-2,6-methanobenzo[d]azocin-11-yl)-N-methylbenzamide]",EC50,[1]; [4],159 ± 15.4 nM
same,Emax,[1]; [5],37.7 ± 1.67%
same,EC50,[2]; [6],0.0534 ± 0.00728 µM
same,Emax,[2]; [7],76 ± 6.66%
"C=CC[C@@]12CCN(C)C(Cc3ccc(OC)cc31)[C@@H]2N(C)C(=O)Nc1ccc(C#N)cc1 [Compound 135, 1-((6R,11R)-6-allyl-8-methoxy-3-methyl-1,2,3,4,5,6-hexahydro-2,6-methanobenzo[d]azocin-11-yl)-3-(4-cyanophenyl)-1-methylurea]",EC50,[1]; [4],1700 ± 112 nM
same,Emax,[1]; [5],92 ± 2.65%
same,EC50,[2]; [6],2.81 ± 0.397 µM
same,Emax,[2]; [7],22 ± 2.52%
"CN1CC[C@@]2(C)c3cc(O)ccc3C[C@@H]1[C@@H]2N(C)C(=O)C1CCCCC1 [Compound 121, N-((2R,6S,11R)-8-hydroxy-3,6-dimethyl-1,2,3,4,5,6-hexahydro-2,6-methanobenzo[d]azocin-11-yl)-N-methylcyclohexanecarboxamide]",EC50,[1]; [4],126 ± 15.4 nM
same,Emax,[1]; [5],91.7 ± 4.18%
same,EC50,[2]; [6],0.604 ± 0.0681 µM
same,Emax,[2]; [7],18.3 ± 0.88%
"C[C@]12CCN(CC3CC3)[C@H](Cc3ccc(O)cc31)[C@@H]2NS(=O)(=O)c1cccc(C(F)(F)F)c1 [Compound 129, N-((2R,6S,11R)-3-(cyclopropylmethyl)-8-hydroxy-6-methyl-1,2,3,4,5,6-hexahydro-2,6-methanobenzo[d]azocin-11-yl)-3-(trifluoromethyl)benzenesulfonamide]",EC50,[1]; [4],9.14 ± 1.19 nM
same,Emax,[1]; [5],20 ± 1.15%
same,EC50,[2]; [6],0.00078 ± 7e-05 µM
same,Emax,[2]; [7],97.3 ± 1.86%
"CN1CC[C@@]2(C)c3cc(O)ccc3C[C@@H]1[C@H]2NCCCNC(=O)OC(C)(C)C [Compound 111, tert-butyl (3-(((2R,6S,11S)-8-hydroxy-3,6-dimethyl-1,2,3,4,5,6-hexahydro-2,6-methanobenzo[d]azocin-11-yl)amino)propyl)carbamate]",EC50,[1]; [4],2.23 ± 0.12 nM
same,Emax,[1]; [5],64 ± 4%
same,EC50,[2]; [6],0.0426 ± 0.00764 µM
same,Emax,[2]; [7],22.7 ± 2.33%
"CN1CC[C@@]2(C)c3cc(O)ccc3C[C@@H]1[C@@H]2N(C)C(=O)/C=C/c1cccnc1 [Compound 122, (E)-N-((2R,6S,11R)-8-hydroxy-3,6-dimethyl-1,2,3,4,5,6-hexahydro-2,6-methanobenzo[d]azocin-11-yl)-N-methyl-3-(pyridin-3-yl)acrylamide]",EC50,[1]; [4],0.36 ± 0.01 nM
same,Emax,[1]; [5],102 ± 1.2%
same,EC50,[2]; [6],0.0152 ± 0.00263 µM
same,Emax,[2]; [7],94.5 ± 0.65%
"COc1ccc2c(c1)[C@@]1(C)CCN(C)C(C2)C1N1CCC(N)CC1 (stereo partly drawn) [Compound 70, 1-((6R)-8-methoxy-3,6-dimethyl-1,2,3,4,5,6-hexahydro-2,6-methanobenzo[d]azocin-11-yl)piperidin-4-amine]",EC50,[3],9380 ± 501 nM
same,Emax,[3]; read-out: GTPγS μ Emax,24.7 ± 0.88%
"CN1CC[C@@]2(C)c3cc(O)ccc3C[C@@H]1[C@@H]2NCCc1ccc(Cl)c(Cl)c1 [Compound 98, (2R,6S,11R)-11-((3,4-dichlorophenethyl)amino)-3,6-dimethyl-1,2,3,4,5,6-hexahydro-2,6-methanobenzo[d]azocin-8-ol]",EC50,[1]; [4],0.3 ± 0.027 nM
same,Emax,[1]; [5],104 ± 3.76%
same,EC50,[2]; [6],0.0286 ± 0.00321 µM
same,Emax,[2]; [7],95.3 ± 3.84%
"CC(C)CCC(=O)N(C)[C@H]1[C@H]2Cc3ccc(O)cc3[C@]1(C)CCN2C [Compound 116, N-((2R,6S,11R)-8-hydroxy-3,6-dimethyl-1,2,3,4,5,6-hexahydro-2,6-methanobenzo[d]azocin-11-yl)-N,4-dimethylpentanamide]",EC50,[1]; [4],3.12 ± 0.15 nM
same,Emax,[1]; [5],104 ± 2.96%
same,EC50,[2]; [6],0.0694 ± 0.00537 µM
same,Emax,[2]; [7],56.3 ± 3.93%
"CCC[C@@]12CCN(C)C(Cc3ccc(OC)cc31)[C@@H]2N(C)C(=O)Nc1ccc(C#N)cc1 [Compound 136, 3-(4-cyanophenyl)-1-((6R,11R)-8-methoxy-3-methyl-6-propyl-1,2,3,4,5,6-hexahydro-2,6-methanobenzo[d]azocin-11-yl)-1-methylurea]",EC50,[1]; [4],2330 ± 236 nM
same,Emax,[1]; [5],62.3 ± 3.84%
same,EC50,[2]; [6],3.83 ± 0.541 µM
same,Emax,[2]; [7],22.3 ± 3.71%
"CN1CC[C@@]2(C)c3cc(O)ccc3C[C@@H]1[C@H]2NCCc1c[nH]c2ccccc12 [Compound 110, (2R,6S,11S)-11-((2-(1H-indol-3-yl)ethyl)amino)-3,6-dimethyl-1,2,3,4,5,6-hexahydro-2,6-methanobenzo[d]azocin-8-ol]",EC50,[1]; [4],11.6 ± 1.55 nM
same,Emax,[1]; [5],92.3 ± 2.03%
same,EC50,[2]; [6],0.0254 ± 0.00338 µM
same,Emax,[2]; [7],37.7 ± 2.03%
"CN1CC[C@@]2(C)c3cc(O)ccc3C[C@@H]1[C@@H]2NCCc1cccs1 [Compound 104, (2R,6S,11R)-3,6-dimethyl-11-((2-(thiophen-2-yl)ethyl)amino)-1,2,3,4,5,6-hexahydro-2,6-methanobenzo[d]azocin-8-ol]",EC50,[1]; [4],51.3 ± 5.26 nM
same,Emax,[1]; [5],105.3 ± 0.88%
same,EC50,[2]; [6],1.26 ± 0.229 µM
same,Emax,[2]; [7],79.7 ± 5.9%
"CN1CC[C@@]2(C)c3cc(O)ccc3C[C@@H]1[C@H]2NCCc1ccc(C(C)(C)C)cc1 [Compound 105, (2R,6S,11S)-11-((4-(tert-butyl)phenethyl)amino)-3,6-dimethyl-1,2,3,4,5,6-hexahydro-2,6-methanobenzo[d]azocin-8-ol]",EC50,[1]; [4],0.22 ± 0.052 nM
same,Emax,[1]; [5],32.7 ± 1.76%
same,EC50,"[2]; U-2 OS cells, bound in μM, read-out: GTPγS κ EC50",> 20 µM
same,Emax,[2]; [7],1%
"CN(C(=O)Nc1nc2cc(F)ccc2s1)[C@@H]1[C@H]2Cc3ccc(O)cc3[C@]1(C)CCN2CC1CC1 [Compound 134, 1-((2R,6S,11S)-3-(cyclopropylmethyl)-8-hydroxy-6-methyl-1,2,3,4,5,6-hexahydro-2,6-methanobenzo[d]azocin-11-yl)-3-(5-fluorobenzo[d]thiazol-2-yl)-1-methylurea]",EC50,"[1]; GTPγS μ EC50, U-2 OS cells",1.47 ± 0.58 nM
same,Emax,"[1]; read-out: GTPγS μ Emax, U-2 OS cells",16 ± 0.71%
same,EC50,[2],> 20 µM
same,Emax,[2],90%
"CN1CC[C@@]2(C)c3cc(O)ccc3C[C@@H]1[C@@H]2N(C)C(=O)c1ccccc1 [Compound 119, N-((2R,6S,11R)-8-hydroxy-3,6-dimethyl-1,2,3,4,5,6-hexahydro-2,6-methanobenzo[d]azocin-11-yl)-N-methylbenzamide]",EC50,[1]; [4],32.2 ± 3.26 nM
same,Emax,[1]; [5],100 ± 2.73%
same,EC50,[2]; [6],0.383 ± 0.0219 µM
same,Emax,[2]; [7],96.7 ± 5.36%
"CN1CC[C@@]2(C)c3cc(O)ccc3C[C@@H]1[C@H]2NCCc1ccc(Cl)c(Cl)c1 [Compound 99, (2R,6S,11S)-11-((3,4-dichlorophenethyl)amino)-3,6-dimethyl-1,2,3,4,5,6-hexahydro-2,6-methanobenzo[d]azocin-8-ol]",EC50,[1]; [4],0.13 ± 0.01 nM
same,Emax,[1]; [5],71 ± 2%
same,EC50,[2]; [6],0.00144 ± 5.3e-05 µM
same,Emax,[2]; [7],72.3 ± 4.67%
"CN1CC[C@@]2(C)c3cc(O)ccc3C[C@@H]1[C@H]2N(C)C(=O)Cc1ccccc1 [Compound 117, N-((2R,6S,11S)-8-hydroxy-3,6-dimethyl-1,2,3,4,5,6-hexahydro-2,6-methanobenzo[d]azocin-11-yl)-N-methyl-2-phenylacetamide]",EC50,[1]; [4],822 ± 93.9 nM
same,Emax,[1]; [5],93.7 ± 5.36%
same,EC50,[2]; [6],3.39 ± 0.439 µM
same,Emax,[2]; [7],79.7 ± 5.46%
"CCC[C@@]12CCN(C)C(Cc3ccc(O)cc31)[C@H]2N(C)C(=O)Nc1ccc(C#N)cc1 [Compound 137, 3-(4-cyanophenyl)-1-((6R,11S)-8-hydroxy-3-methyl-6-propyl-1,2,3,4,5,6-hexahydro-2,6-methanobenzo[d]azocin-11-yl)-1-methylurea]",EC50,[1]; [4],1320 ± 178 nM
same,Emax,[1]; [5],50.3 ± 1.76%
same,EC50,[2]; [6],3.37 ± 0.753 µM
same,Emax,[2]; [7],30 ± 2.31%
"CN([C@@H]1[C@H]2Cc3ccc(O)cc3[C@]1(C)CCN2CC1CC1)S(=O)(=O)c1cccc(C(F)(F)F)c1 [Compound 130, N-((2R,6S,11S)-3-(cyclopropylmethyl)-8-hydroxy-6-methyl-1,2,3,4,5,6-hexahydro-2,6-methanobenzo[d]azocin-11-yl)-N-methyl-3-(trifluoromethyl)benzenesulfonamide]",EC50,[1]; [4],373 ± 105 nM
same,Emax,[1]; [5],29 ± 2%
same,EC50,[2]; [6],0.0228 ± 0.00338 µM
same,Emax,[2]; [7],71 ± 3.11%
